According to patent US11566018B2, “Treatment of infectious disease” (The Governors of the University of Alberta, priority 2018, dated 2023):

Key:
MTT cell viability assay = assay type: cell-based, human; conditions: human; 1HAEo- cells, dose response; read-out: CC50 (cytotoxic concentration at which cell viability is reduced by half)
Protocol: (§1) MTT cell viability assay. 1HAEo-cells were grown in parallel with infected and compound treated cells in SAR and dose response experiments. 0.3 mg/mL of MTT ((3-(4,5-dimethylthiazol-2-yl)-2,5-diphenyl tetrazolium bromide)) in PBS was added to wells and incubated for 1 hour. Precipitate was dissolved in DMSO and absorbance was measured at 570 nm.

RSV-A2-GFP [1] = test: Dose response experiments, progeny virus titered on HeLa cells; assay type: cell-based, human RSV strain A2; conditions: 1HAEo- cells
Protocol: Dose response experiments. 1HAEo-cells were infected as described, progeny virus collected, and tittered on HeLa cells in duplicate as described in SAR 2. During initial infection in 1HAEo-cells infectious media was replaced with media containing compounds at indicated concentrations at 2 hours post infection. Proportion of virus infected cells were quantified via indirect immunofluorescence assay.
To further assess the therapeutic potential of compounds identified in SAR 1 and SAR 2, a therapeutic index (TI) of each compound was identified (e.g., ratio of […]). […] Overall, the TI was increased from 4.1 for compound 5a to 12.3 with compound 5f.

RSV-GFP-A2 = test: Mutant escape assay (serial passage); assay type: cell-based, human RSV strain A2; conditions: 14 serial passages over five weeks, 1HAEo- cells
Protocol: Mutant escape assay. 1HAEo-cells were infected with RSV-GFP-A2 at an initial MOI of 0.1 and serial passaged over incubation periods of 48-72 hours. Samples were collected during passaging and stored in liquid nitrogen for tittering via indirect immunofluorescence assay. Ongoing low level viral infection during passaging was confirmed by identification of green fluorescence from GFP produced by the RSV-GFP in infected cells.
An established challenge to development of antiviral pharmaceuticals is the evolution of antiviral resistance. This is pronounced for viruses with RNA genome due to an inherent error-prone process of RNA-dependent RNA polymerase replication of a viral genome. Error prone replication results in a high mutation rate of RNA viruses that leads to development of antiviral resistance. As such, development of resistant mutants to compounds 5a and 5f was undertaken, as the site of mutations could provide further insights into the nature of the viral target.

[2] = target: T1, RSV viral replication complex (Human respiratory syncytial virus A, UniProt P28887); test: Cell extract-based in vitro inhibition of viral transcription; assay type: biochemical, RSV A2
T1 construct: endogenous in cells; crude lysolecithin cell extract
T1 sequence (P28887 whole entry): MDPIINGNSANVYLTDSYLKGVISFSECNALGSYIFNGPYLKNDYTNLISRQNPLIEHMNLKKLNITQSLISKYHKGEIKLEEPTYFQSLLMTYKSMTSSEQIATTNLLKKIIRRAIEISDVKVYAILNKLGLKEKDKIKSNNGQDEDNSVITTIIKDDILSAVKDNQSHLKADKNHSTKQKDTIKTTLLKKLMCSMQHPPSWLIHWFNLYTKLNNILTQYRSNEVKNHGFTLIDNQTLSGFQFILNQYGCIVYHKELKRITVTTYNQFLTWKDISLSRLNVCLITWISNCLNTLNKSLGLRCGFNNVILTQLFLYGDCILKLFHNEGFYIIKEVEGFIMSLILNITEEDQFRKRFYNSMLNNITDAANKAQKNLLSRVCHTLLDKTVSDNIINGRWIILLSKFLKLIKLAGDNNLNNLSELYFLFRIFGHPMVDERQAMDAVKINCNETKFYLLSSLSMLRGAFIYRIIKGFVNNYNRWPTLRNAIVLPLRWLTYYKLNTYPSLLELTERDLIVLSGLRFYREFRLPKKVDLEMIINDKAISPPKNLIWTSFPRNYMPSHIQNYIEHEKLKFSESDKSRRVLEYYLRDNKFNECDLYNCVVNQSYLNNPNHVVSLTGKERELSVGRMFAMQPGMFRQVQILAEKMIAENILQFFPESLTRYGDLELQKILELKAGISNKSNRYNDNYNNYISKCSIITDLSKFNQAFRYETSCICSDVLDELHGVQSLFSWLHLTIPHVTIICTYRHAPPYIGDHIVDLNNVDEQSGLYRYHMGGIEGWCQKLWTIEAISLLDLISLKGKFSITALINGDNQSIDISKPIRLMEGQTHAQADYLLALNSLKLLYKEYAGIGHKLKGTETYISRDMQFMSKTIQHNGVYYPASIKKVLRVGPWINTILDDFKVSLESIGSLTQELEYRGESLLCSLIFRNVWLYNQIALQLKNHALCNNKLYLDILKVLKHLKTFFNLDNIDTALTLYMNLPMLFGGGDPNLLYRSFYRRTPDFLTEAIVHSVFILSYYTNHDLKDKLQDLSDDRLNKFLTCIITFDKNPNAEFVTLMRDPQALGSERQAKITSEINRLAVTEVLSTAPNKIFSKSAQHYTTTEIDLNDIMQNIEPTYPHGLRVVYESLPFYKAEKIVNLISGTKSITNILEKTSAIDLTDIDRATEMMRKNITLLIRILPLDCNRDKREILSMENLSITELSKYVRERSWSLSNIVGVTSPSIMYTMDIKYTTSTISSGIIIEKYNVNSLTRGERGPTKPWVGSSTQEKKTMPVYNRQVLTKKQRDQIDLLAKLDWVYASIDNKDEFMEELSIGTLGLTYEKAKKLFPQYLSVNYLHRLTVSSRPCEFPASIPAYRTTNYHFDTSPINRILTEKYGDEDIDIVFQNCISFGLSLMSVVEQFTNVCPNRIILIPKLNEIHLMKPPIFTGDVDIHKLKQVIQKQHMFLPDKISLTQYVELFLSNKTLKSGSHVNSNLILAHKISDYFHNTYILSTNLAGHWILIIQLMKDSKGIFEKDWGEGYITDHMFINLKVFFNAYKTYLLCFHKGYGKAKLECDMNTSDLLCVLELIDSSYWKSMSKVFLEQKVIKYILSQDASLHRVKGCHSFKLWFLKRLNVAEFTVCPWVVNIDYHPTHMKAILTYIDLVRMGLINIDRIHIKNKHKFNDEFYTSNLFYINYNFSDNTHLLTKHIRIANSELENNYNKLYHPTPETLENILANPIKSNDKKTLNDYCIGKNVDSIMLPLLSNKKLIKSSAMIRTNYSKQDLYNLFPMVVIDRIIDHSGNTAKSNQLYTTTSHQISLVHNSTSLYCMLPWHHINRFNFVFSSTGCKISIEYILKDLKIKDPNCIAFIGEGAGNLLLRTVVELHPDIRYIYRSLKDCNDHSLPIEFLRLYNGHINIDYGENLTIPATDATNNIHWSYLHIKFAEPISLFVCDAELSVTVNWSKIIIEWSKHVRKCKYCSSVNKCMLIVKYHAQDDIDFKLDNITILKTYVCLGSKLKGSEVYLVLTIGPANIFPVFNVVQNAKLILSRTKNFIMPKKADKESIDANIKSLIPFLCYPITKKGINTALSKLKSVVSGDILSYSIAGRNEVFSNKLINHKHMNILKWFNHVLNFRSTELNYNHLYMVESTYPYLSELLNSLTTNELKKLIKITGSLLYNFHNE
T1 sequence (P03421 whole entry, further chain): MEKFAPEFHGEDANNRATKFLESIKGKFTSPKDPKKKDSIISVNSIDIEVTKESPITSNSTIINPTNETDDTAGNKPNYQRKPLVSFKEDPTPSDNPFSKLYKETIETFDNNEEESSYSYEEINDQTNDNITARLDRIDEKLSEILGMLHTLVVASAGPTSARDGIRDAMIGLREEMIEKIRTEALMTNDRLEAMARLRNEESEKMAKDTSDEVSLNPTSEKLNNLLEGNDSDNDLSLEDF

RSV-A2-GFP [3] = test: Structure activity relationship screens of antiviral activity (SAR 1/SAR 2); progeny virus by indirect immunofluorescence; assay type: cell-based, human RSV strain A2; conditions: compounds at 10 μM, 1HAEo- cells, progeny virus on HeLa indicator cells
Protocol: (§2) Cells and virus. Hep-2 cells were grown in Opti-MEM media supplemented with 2% fetal bovine serum (FBS), 1HAEo-cells were grown in MEM media supplemented with 10% FBS, and Hela cells grown in DMEM supplemented with 10% FBS. Infections were conducted using human RSV strain A2 or RSV-A2-GFP strain described previously [Hallak, L. K.; Spillmann, D.; Collins, P. L.; Peeples, M. E. J. Virol. 2000, 74, 10508-10513]. A549 cells and Vero cells were grown in DMEM supplemented with 10% FBS and used for experiments with ZIKV (Cambodia strain).
Structure activity relationship screens of antiviral activity. 1HAEo-cells were seeded at 80% confluency and incubated overnight. In SAR1 cells were preincubated with compounds for one hour at 20 μM prior to infection, followed by dilution to 10 μM and infection with RSV-A2-GFP at an MOI of 1 for 2 hours. In SAR2 1HAEo-cells were infected with RSV-A2-GFP at an MOI of 0.5 for 2 hours without pre-incubation with compounds. At 2 hours post infection, infectious media was removed from wells to prevent carry over of infecting virus into progeny collections. Fresh media containing compounds at 10 μM was added for remainder of 48 hour incubation. […]
Progeny virus quantification via indirect immunofluorescence. […] Total cells (identified by DAPI staining) and infected cells were counted via the Operetta high content imaging system at 20x objective magnification. […]

1HAEo- cells = test: MTT cell viability assay; assay type: cell-based, human; conditions: compounds at 10 μM, SAR screens
Protocol: as §1

ZIKV (Cambodia strain) = test: Zika Virus antiviral screen (plaque assay); assay type: cell-based; conditions: 10 μM, progeny virus quantified on Vero cells by plaque assay, n=3
Protocol: as §2
Zika Virus antiviral screen. Vero cells were pre-treated with bis(indole) compounds at 10 μM for 4 hours before infection with ZIKV at an MOI of 1. After 48 hour infection progeny ZIKV was collected, serial diluted over 6 logs, and transferred onto fresh Vero cell monolayers and incubated for 4 days. Vero cell monolayers were then fixed with 10% formaldehyde and stained with crystal violet; viral infection was quantified via plaque assay.
ZIKV constitutes a virus distinct from RSV with a markedly different intracellular replication strategy. Both viruses encode a viral RdRp essential to viral replication; however, the structure and function of RSV RdRp and ZIKV RdRp are quite different. […] RSV polymerase recognizes cis-acting ‘gene start’ and ‘gene end’ elements of the viral genome to produce subgenomic mRNAs enabling translation of viral proteins. […]

Compound	CC50 (MTT cell viability assay)	viral replication at concentrations tolerated by the host cell (RSV-A2-GFP [1])	development of resistant virus (RSV-GFP-A2)	viral transcription from the RSV replication complex [2]	antiviral activity (inhibition of RSV infection) (RSV-A2-GFP [3])	cytotoxicity (cell viability) (1HAEo- cells)	inhibition of ZIKV infection (ZIKV (Cambodia strain))
COC(=O)C1(c2c(-c3ccc(OC)cc3)[nH]c3ccccc23)Nc2cc(Cl)ccc2C1=O (stereo not shown) [Compound 5b]	59.2 µM						
COC(=O)C1(c2c(-c3ccccc3)[nH]c3ccccc23)Nc2cc(Cl)ccc2C1=O (stereo not shown) [Compound 5a]	42.5 µM	consistently inhibited viral replication at concentrations tolerated by the host cell	did not result in the development of viruses resistant to either compound	Decreasing viral transcription from the RSV replication complex was observed in a dose dependent manner	comparable to that of the known antiviral guanosine-analogue drug ribavirin	no cytotoxicity	Significant inhibition
COC(=O)C1(c2cn(C)c3ccccc23)Nc2cc(Cl)ccc2C1=O (stereo not shown) [Compound 2p]	22.8 µM	viral replication was not diminished at compound concentrations tolerated by the host cell				demonstrated cytotoxicity in SAR 1	
COC(=O)C1(c2c(-c3ccc(OC)cc3)[nH]c3ccccc23)Nc2cc(Br)ccc2C1=O (stereo not shown) [Compound 5f]	93.5 µM		did not result in the development of viruses resistant to either compound				
